Source: the OligoGym collection
HELM strings list units from the 5' end as sugar, base in round brackets, then linkage (d deoxyribose, r ribose, m 2'-O-methyl, p phosphodiester). Strings are as the collection lists them; they lack the last nucleoside at the 3' end of the tested compound. [moe] = 2'-O-(2-methoxyethyl) (MOE); [sp] = phosphorothioate linkage; [m5C] = 5-methylcytosine

What follows are substances tested against GFAP (assay: mouse, dose not given). Details: ASO.
“RNA1{[moe](T)[sp].[moe]([m5C])p.[moe](T)p.[moe]([m5C])p.[moe](A)[sp].d(G)[sp].d(T)[sp].d(T)[sp].d(T)[sp].d(T)[sp].d([m5C])[sp].d([m5C])[sp].d(T)[sp].d([m5C])[sp].d([m5C])[sp].[moe](A)p.[moe](G)p.[moe]([m5C])[sp].[moe](A)}$$$$ (last 3' nucleoside missing)” was tested, and the 3 h FOB score was 4 score 0-7. Substance “RNA1{[moe](T)[sp].[moe]([m5C])p.[moe](T)p.[moe]([m5C])p.[moe](T)[sp].d([m5C])[sp].d([m5C])[sp].d(T)[sp].d(G)[sp].d(T)[sp].d(T)[sp].d(T)[sp].d([m5C])[sp].d(A)[sp].d(G)[sp].[moe]([m5C])p.[moe](A)p.[moe](T)[sp].[moe]([m5C])}$$$$ (last 3' nucleoside missing)” has a 3 h FOB score of 3 score 0-7. “RNA1{[moe](T)[sp].[moe]([m5C])p.[moe]([m5C])p.[moe](T)p.[moe](G)[sp].d([m5C])[sp].d([m5C])[sp].d(T)[sp].d([m5C])[sp].d(A)[sp].d([m5C])[sp].d(A)[sp].d(T)[sp].d([m5C])[sp].d(A)[sp].[moe]([m5C])p.[moe](A)p.[moe](T)[sp].[moe]([m5C])}$$$$ (last 3' nucleoside missing)” was tested, and the 3 h FOB score was 0 score 0-7. In the case of “RNA1{[moe](T)[sp].[moe]([m5C])p.[moe]([m5C])p.[moe](T)p.[moe]([m5C])[sp].d(A)[sp].d(A)[sp].d(G)[sp].d(A)[sp].d(A)[sp].d([m5C])[sp].d([m5C])[sp].d(G)[sp].d(G)[sp].d(A)[sp].[moe](T)p.[moe]([m5C])p.[moe](T)[sp].[moe]([m5C])}$$$$ (last 3' nucleoside missing)”, the 3 h FOB score is reported as 1 score 0-7. “RNA1{[moe]([m5C])[sp].[moe](A)p.[moe](A)p.[moe](G)p.[moe]([m5C])[sp].d(T)[sp].d([m5C])[sp].d(T)[sp].d(G)[sp].d([m5C])[sp].d([m5C])[sp].d(A)[sp].d(G)[sp].d(T)[sp].d(T)[sp].[moe](T)p.[moe](A)p.[moe](A)[sp].[moe](T)}$$$$ (last 3' nucleoside missing)” showed a 3 h FOB score of 5 score 0-7. “RNA1{[moe]([m5C])[sp].[moe](A)p.[moe](G)p.[moe](G)p.[moe](G)[sp].d([m5C])[sp].d(T)[sp].d(A)[sp].d([m5C])[sp].d([m5C])[sp].d(T)[sp].d(T)[sp].d(G)[sp].d(T)[sp].d([m5C])[sp].[moe](T)p.[moe](G)p.[moe](T)[sp].[moe](G)}$$$$ (last 3' nucleoside missing)” was tested, and the 3 h FOB score was 6 score 0-7. Work on “RNA1{[moe]([m5C])[sp].[moe](A)p.[moe](G)p.[moe](T)p.[moe](A)p.[moe](T)p.d(T)[sp].d(A)[sp].d([m5C])[sp].d([m5C])[sp].d(T)[sp].d([m5C])[sp].d(T)[sp].d(A)[sp].d([m5C])[sp].d(T)[sp].[moe](A)p.[moe](G)[sp].[moe](T)}$$$$ (last 3' nucleoside missing)” yielded a 3 h FOB score of 0 score 0-7. Work on “RNA1{[moe]([m5C])[sp].[moe](A)p.[moe](G)p.[moe](T)p.[moe](A)p.d(T)[sp].d(T)[sp].d(A)[sp].d([m5C])[sp].d([m5C])[sp].d(T)[sp].d([m5C])[sp].d(T)[sp].d(A)[sp].d([m5C])[sp].[moe](T)p.[moe](A)p.[moe](G)[sp].[moe](T)}$$$$ (last 3' nucleoside missing)” yielded a 3 h FOB score of 0 score 0-7. Substance “RNA1{[moe]([m5C])[sp].[moe](A)p.[moe](G)p.[moe](T)p.d(A)[sp].d(T)[sp].d(T)[sp].d(A)[sp].d([m5C])[sp].d([m5C])[sp].d(T)[sp].d([m5C])[sp].d(T)[sp].d(A)[sp].[moe]([m5C])p.[moe](T)p.[moe](A)p.[moe](G)[sp].[moe](T)}$$$$ (last 3' nucleoside missing)” has a 3 h FOB score of 1 score 0-7. With “RNA1{[moe]([m5C])[sp].[moe](A)p.[moe](G)p.[moe]([m5C])p.[moe](A)[sp].d(G)[sp].d(T)[sp].d(G)[sp].d([m5C])[sp].d([m5C])[sp].d([m5C])[sp].d(T)[sp].d(G)[sp].d(A)[sp].d(A)[sp].[moe](G)p.[moe](A)p.[moe](T)[sp].[moe](T)}$$$$ (last 3' nucleoside missing)” the 3 h FOB score was 1 score 0-7. “RNA1{[moe]([m5C])[sp].[moe](A)p.[moe](G)p.[moe]([m5C])p.[moe](A)[sp].d(T)[sp].d(T)[sp].d(T)[sp].d(G)[sp].d(T)[sp].d([m5C])[sp].d(T)[sp].d(T)[sp].[moe](T)p.[moe](A)p.[moe](T)[sp].[moe](T)}$$$$ (last 3' nucleoside missing)” showed a 3 h FOB score of 3 score 0-7. “RNA1{[moe]([m5C])[sp].[moe](A)p.[moe](G)p.[moe]([m5C])p.[moe](A)[sp].d(T)[sp].d(T)[sp].d(T)[sp].d(G)[sp].d(T)[sp].d([m5C])[sp].d(T)[sp].d(T)[sp].d(T)[sp].d(A)[sp].[moe](T)p.[moe](T)p.[moe](T)[sp].[moe](T)}$$$$ (last 3' nucleoside missing)” was tested, and the 3 h FOB score was 2 score 0-7. Substance “RNA1{[moe]([m5C])[sp].[moe](A)p.[moe](G)p.[moe]([m5C])p.[moe](A)p.[moe](T)p.d(T)[sp].d(T)[sp].d(G)[sp].d(T)[sp].d([m5C])[sp].d(T)[sp].d(T)[sp].d(T)[sp].d(A)[sp].d(T)[sp].[moe](T)p.[moe](T)[sp].[moe](T)}$$$$ (last 3' nucleoside missing)” has a 3 h FOB score of 1 score 0-7. Work on “RNA1{[moe]([m5C])[sp].[moe](A)p.[moe](G)p.[moe]([m5C])p.[moe]([m5C])p.[moe](T)p.d(G)[sp].d(G)[sp].d(T)[sp].d(T)[sp].d(A)[sp].d(G)[sp].d([m5C])[sp].d([m5C])[sp].d(T)[sp].d(T)[sp].[moe](T)p.[moe]([m5C])[sp].[moe](T)}$$$$ (last 3' nucleoside missing)” yielded a 3 h FOB score of 4 score 0-7. For “RNA1{[moe]([m5C])[sp].[moe](A)p.[moe](G)p.[moe]([m5C])p.[moe]([m5C])p.d(T)[sp].d(G)[sp].d(G)[sp].d(T)[sp].d(T)[sp].d(A)[sp].d(G)[sp].d([m5C])[sp].d([m5C])[sp].d(T)[sp].[moe](T)p.[moe](T)p.[moe]([m5C])[sp].[moe](T)}$$$$ (last 3' nucleoside missing)”, the 3 h FOB score was 5 score 0-7. “RNA1{[moe]([m5C])[sp].[moe](A)p.[moe](G)p.[moe]([m5C])p.d(A)[sp].d(T)[sp].d(T)[sp].d(T)[sp].d(G)[sp].d(T)[sp].d([m5C])[sp].d(T)[sp].d(T)[sp].d(T)[sp].[moe](A)p.[moe](T)p.[moe](T)p.[moe](T)[sp].[moe](T)}$$$$ (last 3' nucleoside missing)” was tested, and the 3 h FOB score was 2 score 0-7. In the case of “RNA1{[moe]([m5C])[sp].[moe](A)p.[moe](G)p.[moe]([m5C])p.d([m5C])[sp].d(T)[sp].d(G)[sp].d(G)[sp].d(T)[sp].d(T)[sp].d(A)[sp].d(G)[sp].d([m5C])[sp].d([m5C])[sp].[moe](T)p.[moe](T)p.[moe](T)p.[moe]([m5C])[sp].[moe](T)}$$$$ (last 3' nucleoside missing)”, the 3 h FOB score is reported as 4 score 0-7. “RNA1{[moe]([m5C])[sp].[moe](A)p.[moe](T)p.[moe](G)p.[moe](G)[sp].d([m5C])[sp].d([m5C])[sp].d(T)[sp].d(G)[sp].d(G)[sp].d([m5C])[sp].d([m5C])[sp].d(T)[sp].d(T)[sp].d(G)[sp].[moe](A)p.[moe](G)p.[moe](A)[sp].[moe](A)}$$$$ (last 3' nucleoside missing)” was tested, and the 3 h FOB score was 1 score 0-7. “RNA1{[moe]([m5C])[sp].[moe](A)p.[moe](T)p.[moe](T)p.[moe](T)[sp].d(G)[sp].d(T)[sp].d([m5C])[sp].d(T)[sp].d(T)[sp].d(T)[sp].d(A)[sp].d(T)[sp].[moe](T)p.[moe](T)p.[moe](T)[sp].[moe](T)}$$$$ (last 3' nucleoside missing)” gave a 3 h FOB score of 0 score 0-7. “RNA1{[moe]([m5C])[sp].[moe](A)p.[moe](T)p.[moe](T)p.[moe](T)[sp].d(G)[sp].d(T)[sp].d([m5C])[sp].d(T)[sp].d(T)[sp].d(T)[sp].d(A)[sp].d(T)[sp].d(T)[sp].d(T)[sp].[moe](T)p.[moe](T)p.[moe]([m5C])[sp].[moe]([m5C])}$$$$ (last 3' nucleoside missing)” was tested, and the 3 h FOB score was 0 score 0-7. In the case of “RNA1{[moe]([m5C])[sp].[moe](A)p.[moe](T)p.[moe](T)p.[moe](T)p.[moe](G)p.d(T)[sp].d([m5C])[sp].d(T)[sp].d(T)[sp].d(T)[sp].d(A)[sp].d(T)[sp].d(T)[sp].d(T)[sp].d(T)[sp].[moe](T)p.[moe]([m5C])[sp].[moe]([m5C])}$$$$ (last 3' nucleoside missing)”, the 3 h FOB score is reported as 0 score 0-7. With “RNA1{[moe]([m5C])[sp].[moe](A)p.[moe](T)p.[moe](T)p.[moe]([m5C])[sp].d(A)[sp].d([m5C])[sp].d(T)[sp].d(A)[sp].d(A)[sp].d(T)[sp].d(A)[sp].d(T)[sp].[moe](T)p.[moe](T)p.[moe](A)[sp].[moe](A)}$$$$ (last 3' nucleoside missing)” the 3 h FOB score was 0 score 0-7. Substance “RNA1{[moe]([m5C])[sp].[moe](A)p.[moe](T)p.[moe](T)p.d(T)[sp].d(G)[sp].d(T)[sp].d([m5C])[sp].d(T)[sp].d(T)[sp].d(T)[sp].d(A)[sp].d(T)[sp].d(T)[sp].[moe](T)p.[moe](T)p.[moe](T)p.[moe]([m5C])[sp].[moe]([m5C])}$$$$ (last 3' nucleoside missing)” has a 3 h FOB score of 0 score 0-7. “RNA1{[moe]([m5C])[sp].[moe](A)p.[moe](T)p.[moe]([m5C])p.[moe](T)[sp].d(G)[sp].d([m5C])[sp].d(T)[sp].d(T)[sp].d([m5C])[sp].d([m5C])[sp].d(T)[sp].d(G)[sp].d(G)[sp].d(A)[sp].[moe](G)p.[moe](T)p.[moe](G)[sp].[moe](G)}$$$$ (last 3' nucleoside missing)” showed a 3 h FOB score of 1 score 0-7. Substance “RNA1{[moe]([m5C])[sp].[moe](A)p.[moe]([m5C])p.[moe](A)p.[moe](T)[sp].d(T)[sp].d([m5C])[sp].d(A)[sp].d([m5C])[sp].d(T)[sp].d(A)[sp].d(A)[sp].d(T)[sp].[moe](A)p.[moe](T)p.[moe](T)[sp].[moe](T)}$$$$ (last 3' nucleoside missing)” has a 3 h FOB score of 0 score 0-7. “RNA1{[moe]([m5C])[sp].[moe](A)p.[moe]([m5C])p.[moe](A)p.[moe](T)p.[moe](T)p.d([m5C])[sp].d(A)[sp].d([m5C])[sp].d(T)[sp].d(A)[sp].d(A)[sp].d(T)[sp].d(A)[sp].d(T)[sp].d(T)[sp].[moe](T)p.[moe](A)[sp].[moe](A)}$$$$ (last 3' nucleoside missing)” was tested, and the 3 h FOB score was 0 score 0-7.
